Marks after values point to notes of the source that are not given here.
Assays:
[1] = system: participants with narcolepsy or OSA; assay: 1-year OLE study: adverse events; assay type: in vivo, human
Procedure: A 1-year open-label extension (OLE) study was performed with 374 participants to examined whether clinically significant weight loss (≥5%) in this population had favorable effects on biomarkers of cardiovascular risk compared to no such weight loss. The study measured changes in weight and BP (parent study baseline to OLE week 40) and clinical laboratory assessments (OLE baseline to week 40) in participants with narcolepsy (n=124) or OSA (n=250) who received solriamfetol at doses of 75, 150, or 300 mg/d.
Of 374 participants, 96 (25.7%) had ≥5% weight loss; among those without ≥5% weight loss (n=278), 34 (9.1% of total population) had ≥5% weight gain. Demographics were similar in those with and without weight loss (see Table 1 (demographics and baseline characteristics) and Table 2 (additional demographics and baseline characteristics)). […] Participants with weight loss had mean±SD reductions in SBP (−2.6±11.4 mmHg) and DBP (−1.0±9.0 mmHg), whereas participants without weight loss had increases of +0.65±12.5 mmHg and +1.2±8.7 mmHg, respectively (see Table 3 (blood pressure at baseline and week 40), Table 4 (systolic blood pressure (SBP) maximum changes from baseline to week 40), and Table 5 (diastolic blood pressure (DBP) maximum changes from baseline to week 40)). Adverse events are shown in Table 11 (adverse events in ≥5% of Combined Solriamfetol Participants).

[2] = system: adults with EDS associated with OSA; assay: 12-week phase 3 trial in OSA: vital signs, antihypertensive medication use, AEs of hypertension/increased BP; assay type: in vivo, human
Procedure: An exploratory analysis of data from one 12-week randomized, controlled trial (Schweitzer P K, et al. Am J Respir Crit Care Med. 2019; 199(11):1421-31) and 1 long-term open-label extension (OLE) trial in adults with EDS (Epworth Sleepiness Scale score ≥10) associated with OSA (Malhotra A, et al. Sleep. 2020; 43(2):zsz220) was carried out. Participants with current/prior use of primary OSA therapy (positive airway pressure [PAP], oral pressure therapy, oral appliance, or upper airway stimulation) were eligible, regardless of the level of adherence to primary OSA therapy; participants who had not attempted to use primary OSA therapy were excluded. Adherence to primary OSA therapy was defined as PAP use ≥4 hours/night on ≥70% of nights/week, historical report (with investigator concurrence) of oral appliance use on ≥70% of nights, or effective surgical intervention. Nonadherence to primary OSA therapy was defined as device use at a level lower than specific above, no device use at all, or surgical intervention deemed no longer effective. Participants received placebo or solriamfetol 37.5 (12-week trial only), 75, 150, or 300 mg/day for 12 weeks (12-week trial) or ≤40 weeks (OLE trial). Vital signs, antihypertensive medication use, and adverse events (AEs) were monitored throughout the studies. Baseline demographics, CV comorbidities, and concomitant medications, the percentage of participants who initiated antihypertensive medication use during treatment, and the incidence of and discontinuations due to AEs of hypertension/increased BP were summarized for the safety population (participants who received ≥1 dose of study medication).

[3] = Weight loss <5% at Week 40, 75 mg/d
[4] = Weight loss <5% at Week 40, 150 mg/d
[5] = Weight loss <5% at Week 40, 300 mg/d
[6] = Weight loss <5% at Week 40, all doses
[7] = Weight loss ≥5% at Week 40, 75 mg/d
[8] = Weight loss ≥5% at Week 40, 150 mg/d
[9] = Weight loss ≥5% at Week 40, 300 mg/d
[10] = Weight loss ≥5% at Week 40, all doses

NC(=O)OC[C@H](N)Cc1ccccc1 [Solriamfetol, (R)-2-amino-3-phenylpropyl carbamate]
AE of interest: Decreased appetite [1, 3]: 1(4.8) n(%)
Common AEs: Anxiety [1, 3]: 0 n(%)
Common AEs: Dizziness [1, 3]: 2(9.5) n(%)
Common AEs: Dry mouth [1, 3]: 2(9.5) n(%)
Common AEs: Feeling jittery [1, 3]: 2(9.5) n(%)
Common AEs: Headache [1, 3]: 3(14.3) n(%)
Common AEs: Influenza [1, 3]: 0 n(%)
Common AEs: Insomnia [1, 3]: 4(19.0) n(%)
Common AEs: Nasopharyngitis [1, 3]: 3(14.3) n(%)
Common AEs: Nausea [1, 3]: 0 n(%)
Common AEs: Sinusitis [1, 3]: 1(4.8) n(%)
Common AEs: URTI (Upper Respiratory Tract Infection) [1, 3]: 0 n(%)
AE of interest: Decreased appetite [1, 4]: 5(4.8) n(%)
Common AEs: Anxiety [1, 4]: 10(9.5) n(%)
Common AEs: Dizziness [1, 4]: 2(1.9) n(%)
Common AEs: Dry mouth [1, 4]: 6(5.7) n(%)
Common AEs: Feeling jittery [1, 4]: 7(6.7) n(%)
Common AEs: Headache [1, 4]: 9(8.6) n(%)
Common AEs: Influenza [1, 4]: 3(2.9) n(%)
Common AEs: Insomnia [1, 4]: 14(13.3) n(%)
Common AEs: Nasopharyngitis [1, 4]: 14(13.3) n(%)
Common AEs: Nausea [1, 4]: 12(11.4) n(%)
Common AEs: Sinusitis [1, 4]: 2(1.9) n(%)
Common AEs: URTI (Upper Respiratory Tract Infection) [1, 4]: 6(5.7) n(%)
AE of interest: Decreased appetite [1, 5]: 6(3.9) n(%)
Common AEs: Anxiety [1, 5]: 2(1.3) n(%)
Common AEs: Dizziness [1, 5]: 4(2.6) n(%)
Common AEs: Dry mouth [1, 5]: 5(3.3) n(%)
Common AEs: Feeling jittery [1, 5]: 7(4.6) n(%)
Common AEs: Headache [1, 5]: 15(9.9) n(%)
Common AEs: Influenza [1, 5]: 2(1.3) n(%)
Common AEs: Insomnia [1, 5]: 3 (2.0) n(%)
Common AEs: Nasopharyngitis [1, 5]: 15(9.9) n(%)
Common AEs: Nausea [1, 5]: 8 (5.3) n(%)
Common AEs: Sinusitis [1, 5]: 11(7.2) n(%)
Common AEs: URTI (Upper Respiratory Tract Infection) [1, 5]: 14(9.2) n(%)
AE of interest: Decreased appetite [1, 6]: 12(4.3) n(%)
Common AEs: Anxiety [1, 6]: 12(4.3) n(%)
Common AEs: Dizziness [1, 6]: 8(2.9) n(%)
Common AEs: Dry mouth [1, 6]: 13(4.7) n(%)
Common AEs: Feeling jittery [1, 6]: 16(5.8) n(%)
Common AEs: Headache [1, 6]: 27(9.7) n(%)
Common AEs: Influenza [1, 6]: 5(1.8) n(%)
Common AEs: Insomnia [1, 6]: 21(7.6) n(%)
Common AEs: Nasopharyngitis [1, 6]: 32(11.5) n(%)
Common AEs: Nausea [1, 6]: 20(7.2) n(%)
Common AEs: Sinusitis [1, 6]: 14(5.0) n(%)
Common AEs: URTI (Upper Respiratory Tract Infection) [1, 6]: 20(7.2) n(%)
AE of interest: Decreased appetite [1, 7]: 0 n(%)
Common AEs: Anxiety [1, 7]: 0 n(%)
Common AEs: Dizziness [1, 7]: 0 n(%)
Common AEs: Dry mouth [1, 7]: 1(100) n(%)
Common AEs: Feeling jittery [1, 7]: 0 n(%)
Common AEs: Headache [1, 7]: 0 n(%)
Common AEs: Influenza [1, 7]: 0 n(%)
Common AEs: Insomnia [1, 7]: 0 n(%)
Common AEs: Nasopharyngitis [1, 7]: 0 n(%)
Common AEs: Nausea [1, 7]: 0 n(%)
Common AEs: Sinusitis [1, 7]: 0 n(%)
Common AEs: URTI (Upper Respiratory Tract Infection) [1, 7]: 0 n(%)
AE of interest: Decreased appetite [1, 8]: 0 n(%)
Common AEs: Anxiety [1, 8]: 3(13.6) n(%)
Common AEs: Dizziness [1, 8]: 2(9.1) n(%)
Common AEs: Dry mouth [1, 8]: 1(4.5) n(%)
Common AEs: Feeling jittery [1, 8]: 2(9.1) n(%)
Common AEs: Headache [1, 8]: 5(22.7) n(%)
Common AEs: Influenza [1, 8]: 1(4.5) n(%)
Common AEs: Insomnia [1, 8]: 2(9.1) n(%)
Common AEs: Nasopharyngitis [1, 8]: 0 n(%)
Common AEs: Nausea [1, 8]: 4(18.2) n(%)
Common AEs: Sinusitis [1, 8]: 3(13.6) n(%)
Common AEs: URTI (Upper Respiratory Tract Infection) [1, 8]: 1(4.5) n(%)
AE of interest: Decreased appetite [1, 9]: 2(2.7) n(%)
Common AEs: Anxiety [1, 9]: 3(4.1) n(%)
Common AEs: Dizziness [1, 9]: 3(4.1) n(%)
Common AEs: Dry mouth [1, 9]: 7(9.6) n(%)
Common AEs: Feeling jittery [1, 9]: 1(1.4) n(%)
Common AEs: Headache [1, 9]: 7(9.6) n(%)
Common AEs: Influenza [1, 9]: 5(6.8) n(%)
Common AEs: Insomnia [1, 9]: 5(6.8) n(%)
Common AEs: Nasopharyngitis [1, 9]: 8(11.0) n(%)
Common AEs: Nausea [1, 9]: 3(4.1) n(%)
Common AEs: Sinusitis [1, 9]: 3(4.1) n(%)
Common AEs: URTI (Upper Respiratory Tract Infection) [1, 9]: 3(4.1) n(%)
AE of interest: Decreased appetite [1, 10]: 2(2.1) n(%)
Common AEs: Anxiety [1, 10]: 6(6.3) n(%)
Common AEs: Dizziness [1, 10]: 5(5.2) n(%)
Common AEs: Dry mouth [1, 10]: 9(9.4) n(%)
Common AEs: Feeling jittery [1, 10]: 3(3.1) n(%)
Common AEs: Headache [1, 10]: 12(12.5) n(%)
Common AEs: Influenza [1, 10]: 6(6.3) n(%)
Common AEs: Insomnia [1, 10]: 7(7.3) n(%)
Common AEs: Nasopharyngitis [1, 10]: 8(8.3) n(%)
Common AEs: Nausea [1, 10]: 7(7.3) n(%)
Common AEs: Sinusitis [1, 10]: 6(6.3) n(%)
Common AEs: URTI (Upper Respiratory Tract Infection) [1, 10]: 4(4.2) n(%)
total participants with AEs of hypertension/increased BP ([2]; 12-week study): 10 participants
AE of HTN/increased BP ([2]; 12-week study, 37.5 mg): 0 n (%)
Discontinuation due to AE of HTN/increased BP ([2]; 12-week study, 37.5 mg): 0 n (%)
Initiated anti-HTN ([2]; 12-week study, 37.5 mg): 1 (1.7) n (%)
AE of HTN/increased BP ([2]; 12-week study, 75 mg): 0 n (%)
Discontinuation due to AE of HTN/increased BP ([2]; 12-week study, 75 mg): 0 n (%)
Initiated anti-HTN ([2]; 12-week study, 75 mg): 0 n (%)
AE of HTN/increased BP, (%) ([2]; 12-week study, 150 mg): (4.3) %
Discontinuation due to AE of HTN/increased BP, (%) ([2]; 12-week study, 150 mg): (0.9)^b %
Initiated anti-HTN ([2]; 12-week study, 150 mg): 1 (0.9) n (%)
AE of HTN/increased BP, (%) ([2]; 12-week study, 300 mg): (4.2) %
Discontinuation due to AE of HTN/increased BP ([2]; 12-week study, 300 mg): 0 n (%)
Initiated anti-HTN ([2]; 12-week study, 300 mg): 2 (1.7) n (%)
serious CV AEs ([2]; 12-week trial): no serious CV AEs
